Patent publication US8309586B2, “Glucokinase activators and pharmaceutical compositions containing the same as an active ingredient” (LG Life Sciences Ltd., priority 2007, dated 2012)

Each molecule was assayed on Glucokinase known as hexokinase IV (human GK isoform 1, pancreas form and human GK isoform 2, liver form) (assay: Glucokinase enzymatic activity assay (G6PDH-coupled, NADH absorbance at 340 nm)). Details: 5 mM glucose, 1 mM ATP, 37 nM GK, 10 min at room temperature.
Format: biochemical
In short: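 His-tagged human GK isoform 1 (pancreas) or 2 (liver), E. coli-expressed and Ni-purified, 37 nM, with 5 mM glucose, 1 mM ATP, 1 mM NAD and G6PDH in 25 mM Hepes/KCl, 2 mM MgCl2, 1 mM DTT. Ran 10 min at room temperature, read as NADH at 340 nm. AC1.5 is the compound concentration giving 1.5-fold activity.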

SMILES | AC1.5 (the compound concentration at which the enzymatic activity is increased by 1.5 times) [nM]
CS(=O)(=O)N1CCC(Nc2cccc3cc(C4=N[C@H](CO)CS4)[nH]c23)C1 (stereo partly drawn) [Example 4, {(R)-2-[7-(1-methanesulfonyl-pyrrolidin-3-ylamino)-1H-indol-2-yl]-4,5-dihydro-thiazol-4-yl}-methanol] | 217
OC[C@@H]1CSC(c2cc3cc(Cn4ccnc4)cc(NC4CCCC4)c3[nH]2)=N1 [Example 22, [(R)-2-(7-cyclopentylamino-5-imidazol-1-ylmethyl-1H-indol-2-yl)-4,5-dihydro-thiazol-4-yl}-methanol] | 112
Clc1cc(NC2CCCC2)c2[nH]c(C3=N[C@H](CCCN4CCOCC4)CS3)cc2c1 [Example 156, {5-chloro-2-[(R)-4-(3-morpholin-4-yl-propyl)-4,5-dihydro-thiazol-2-yl]-1H-indol-7-yl}-cyclopentyl-amine] | 22
O=C(O)C1CCCN(CC[C@@H]2CSC(c3cc4cc(Cl)cc(NC5CCOCC5)c4[nH]3)=N2)C1 (stereo partly drawn) [Example 112, 1-(2-{(R)-2-[5-chloro-7-(tetrahydro-pyran-4-ylamino)-1H-indol-2-yl]-4,5-dihydro-thiazol-4-yl}-ethyl)-piperidine-3-carboxylic acid] | 81
CCCOc1cc(NC2CCCC2)c2[nH]c(C3=N[C@H](CC(=O)O)CS3)cc2c1 [Example 53, [(R)-2-(7-cyclopentylamino-5-propoxy-1H-indol-2-yl)-4,5-dihydro-thiazol-4-yl]-acetic acid] | 97
CC(=O)N1CCN(C(=O)C[C@@H]2CSC(c3cc4cc(F)cc(NC5CCCC5)c4[nH]3)=N2)CC1 [Example 86, 1-(4-acetyl-piperazin-1-yl)-2-[(R)-2-(7-cyclopentylamino-5-fluoro-1H-indol-2-yl)-4,5-dihydro-thiazol-4-yl]-ethanone] | 23
CCOC(=O)COC[C@@H]1CSC(c2cc3cc(F)cc(NC4CCCC4)c3[nH]2)=N1 [Example 170, [(R)-2-(7-cyclopentylamino-5-fluoro-1H-indol-2-yl)-4,5-dihydro-thiazol-4-ylmethoxy]-acetic acid ethyl ester] | 12
c1cc(NC2CCCC2)c2[nH]c(C3=N[C@H](CN4CCCC4)CS3)cc2c1 [Example 15, cyclopentyl-[2-((R)-4-pyrrolidin-1-ylmethyl-4,5-dihydro-thiazol-2-yl)-1H-indol-7-yl]-amine] | 400
OC[C@@H]1CSC(c2cc3cc(Br)cc(NC4CCOCC4)c3[nH]2)=N1 [Example 11, {(R)-2-[5-bromo-7-(tetrahydro-pyran-4-ylamino)-1H-indol-2-yl]-4,5-dihydro-thiazol-4-yl}-methanol] | 14
COCC[C@@H]1CSC(c2cc3cccc(NC4CCCC4)c3[nH]2)=N1 [Example 141, cyclopentyl-{2-[(R)-4-(2-methoxy-ethyl)-4,5-dihydro-thiazol-2-yl]-1H-indol-7-yl}-amine] | 24
CCOC(=O)CC[C@@H]1CSC(c2cc3cc(Br)cc(NC4CCCC4)c3[nH]2)=N1 [Example 162, 3-[(R)-2-(5-bromo-7-cyclopentylamino-1H-indol-2-yl)-4,5-dihydro-thiazol-4-yl]-propionic acid ethyl ester] | 21
O=C(C[C@@H]1CSC(c2cc3cc(F)cc(NC4CCCC4)c3[nH]2)=N1)NCCN1CCOCC1 [Example 85, 2-[(R)-2-(7-cyclopentylamino-5-fluoro-1H-indol-2-yl)-4,5-dihydro-thiazol-4-yl]-N-(2-morpholin-4-yl-ethyl)-acetamide] | 18
CCOC(=O)CC[C@@H]1CSC(c2cc3cc(OC(F)(F)F)cc(NC4CCCC4)c3[nH]2)=N1 [Example 168, 3-[(R)-2-(7-cyclopentylamino-5-trifluoromethoxy-1H-indol-2-yl)-4,5-dihydro-thiazol-4-yl]-propionic acid ethyl ester] | 15
O=C(O)C[C@@H]1CSC(c2cc3cc(Oc4ccccc4)cc(NC4CCOCC4)c3[nH]2)=N1 [Example 55, {(R)-2-[5-phenoxy-7-(tetrahydro-pyran-4-ylamino)-1H-indol-2-yl]-4,5-dihydro-thiazol-4-yl}-acetic acid] | 29
CS(=O)(=O)Cc1cc(NC2CCCC2)c2[nH]c(C3=N[C@H](CCO)CS3)cc2c1 [Example 70, 2-[(R)-2-(7-cyclopentylamino-5-methanesulfonylmethyl-1H-indol-2-yl)-4,5-dihydro-thiazol-4-yl]-ethanol] | 32
CN(C)CC[C@@H]1CSC(c2cc3cccc(NC4CCCC4)c3[nH]2)=N1 [Example 142, cyclopentyl-{2-[(R)-4-(2-dimethylamino-ethyl)-4,5-dihydro-thiazol-2-yl]-1H-indol-7-yl}-amine] | 85
CCOC(=O)C[C@@H]1CSC(c2cc3cc(OC)cc(NC4CCCC4)c3[nH]2)=N1 [Example 49, [(R)-2-(7-cyclopentylamino-5-methoxy-1H-indol-2-yl)-4,5-dihydro-thiazol-4-yl]-acetic acid ethyl ester] | 35
O=C(C[C@@H]1CSC(c2cc3cc(Cl)cc(NC4CCCC4)c3[nH]2)=N1)NCCCN1CCOCC1 [Example 75, 2-[(R)-2-(5-chloro-7-cyclopentylamino-1H-indol-2-yl)-4,5-dihydro-thiazol-4-yl]-N-(3-morpholin-4-yl-propyl)-acetamide] | 21
O=C(C[C@@H]1CSC(c2cc3cc(Cl)cc(NC4CCCC4)c3[nH]2)=N1)N1CCOCC1 [Example 73, 2-[(R)-2-(5-chloro-7-cyclopentylamino-1H-indol-2-yl)-4,5-dihydro-thiazol-4-yl]-1-morpholin-4-yl-ethanone] | 25
OCCC[C@@H]1CSC(c2cc3cc(Cl)cc(NC4CCCC4)c3[nH]2)=N1 [Example 150, 3-[(R)-2-(5-chloro-7-cyclopentylamino-1H-indol-2-yl)-4,5-dihydro-thiazol-4-yl]-propan-1-ol] | 10
CS(=O)(=O)CC[C@@H]1CSC(c2cc3cc(Cl)cc(NC4CCCC4)c3[nH]2)=N1 [Example 108, {5-chloro-2-[(R)-4-(2-methanesulfonyl-ethyl)-4,5-dihydro-thiazol-2-yl]-1H-indol-7-yl}-cyclopentyl-amine] | 15
Clc1cc(NC2CCCC2)c2[nH]c(C3=N[C@H](CCN4CCCCC4)CS3)cc2c1 [Example 104, {5-chloro-2-[(R)-4-(2-piperidin-1-yl-ethyl)-4,5-dihydro-thiazol-2-yl]-1H-indol-7-yl}-cyclopentyl-amine] | 13
O=C1CN(CC[C@@H]2CSC(c3cc4cc(Cl)cc(NC5CCCC5)c4[nH]3)=N2)CCN1 [Example 102] | 7
c1cc(NC2CCCC2)c2[nH]c(C3=N[C@H](CCN4CCCCC4)CS3)cc2c1 [Example 144, cyclopentyl-{2-[(R)-4-(2-piperidin-1-yl-ethyl)-4,5-dihydro-thiazol-2-yl]-1H-indol-7-yl}-amine] | 122
COC(=O)C[C@@H]1CSC(c2cc3cc(OC)cc(NC4CCOCC4)c3[nH]2)=N1 [Example 50, {(R)-2-[5-methoxy-7-(tetrahydro-pyran-4-ylamino)-1H-indol-2-yl]-4,5-dihydro-thiazol-4-yl}-acetic acid methyl ester] | 28
Clc1cc(NC2CCCC2)c2[nH]c(C3=N[C@H](CCn4cccn4)CS3)cc2c1 [Example 106, {5-chloro-2-[(R)-4-(2-pyrazol-1-yl-ethyl)-4,5-dihydro-thiazol-2-yl]-1H-indol-7-yl}-cyclopentyl-amine] | 14
c1cc(NC2CCCC2)c2[nH]c(C3=N[C@H](CCN4CCOCC4)CS3)cc2c1 [Example 143, cyclopentyl-{2-[(R)-4-(2-morpholin-4-yl-ethyl)-4,5-dihydro-thiazol-2-yl]-1H-indol-7-yl}-amine] | 37
CN1CCN(C(=O)CC[C@@H]2CSC(c3cc4cc(Cl)cc(NC5CCCC5)c4[nH]3)=N2)CC1 [Example 154, 3-[(R)-2-(5-chloro-7-cyclopentylamino-1H-indol-2-yl)-4,5-dihydro-thiazol-4-yl]-1-(4-methyl-piperazin-1-yl)-propan-1-one] | 14
